Where no end group is shown, it is not given here.
Columns and labels:
[1] = system: rat lacrimal secretion; experiment: Rat lacrimal fluid secretion in vivo (Schirmer test paper); settings: male Wistar rat; for lacrimal secretion promoting action compared with Ser-Leu-Ile-Gly-Arg-Leu-NH2 and Ile-Gly-Arg-Leu-NH2: six minutes after administration (FIGS. 2, 4); for lacrimal secretion promoting action: peptide 5 μmol/kg i.v. one minute after amastatin 2.5 μmol/kg i.v., six minutes after administration (FIGS. 1, 3)
Description: An amount of lacrimal secretion which is an indication for determining an effect of promoting lacrimal secretion can be measured according to a known method such as by Iga et al. (Iga, Y. et al., Jpn. J. Pharmacol., 78, 373-80, 1998) using a rat. In particular, a rat is anesthetized with pentobarbital (50 mg/kg, intra-abdominal administration), and a paper with 2 mm width for testing the human lacrimal secretion function, the Schirmer test paper (Showa Yakuhin Kako Co., Ltd.) is inserted into a lower eyelid of the rat. After a fixed period of time has passed, the test paper is removed, and a length of the wetted portion of the test paper is measured using a caliper square. If a statistically significant increase of lacrimal secretion is observed when a test substance is administered, it can be said that the substance has the lacrimal secretion promoting action.
Male Wistar rat at 6 weeks of age was used in experiments. Each animal was housed for one week under the environment of room temperature of 23±2° C., a humidity of 50±5% and a 12 hours light/dark cycle (light: 07:00-19:00) and, thereafter, it was subjected to experiments. During the housing and experiment period, the animal was fed a solid chaw and water ad lib.
An amount of rat lacrimal fluid secretion was measured according to the method of Iga et al. (Iga, Y. et al., Jpn. J. Pharmacol., 78, 373-80, 1998). That is, the rat was anesthetized with pentobarbital (50 mg/kg, intraabdominal administration), and a paper with 2 mm width for testing human lacrimal secretion function, the Schirmer test paper (Showa Yakuhin Kako Co., Ltd.) was inserted into a lower eyelid of the rat. After the period of time fixed has passed, the test paper was removed, and a length of a wetted portion of the test paper was measured using a caliper square to define an indicator of lacrimal secretion. An amount of lacrimal fluid was measured at 1, 2, 4 and 6 minutes after administration of the peptides.
In addition, the results are shown in the mean (mm)±standard error, and the test of significance was performed according to a Tukey's multiple comparison test.
A physiological salt solution of amastatin (2.5 μmol/kg), which is an aminopeptidase inhibitor, was intravenously administrated to the rat, and after one minute, a physiological salt solution of various peptide derivatives (5 μmol/kg) was intravenously administrated. Measurements were initiated immediately after administration of the peptides.
As a control, an amount of lacrimal secretion was also measured in the case where the physiological salt solution without the peptide (solvent) was intravenously, administrated.

[2] = system: rat lacrimal secretion; settings: earlier finding, no details given; cited from earlier work
[3] = system: PAR-2; settings: as disclosed in JP 2001-181208A; cited from earlier work
[4] = peptide 5 μmol/kg i.v. after amastatin 2.5 μmol/kg i.v.

Molecule | lacrimal secretion promoting action [1] | further results
CC(C)C[C@H](NC(=O)[C@H](CCCNC(=N)N)NC(=O)c1ccco1)C(N)=O [2-furoyl-(L)Arg-(L)Leu-NH2, N-(2-furoyl)-L-Arg-L-Leu-NH2] | potent lacrimal secretion promoting action | duration of the lacrimal secretion promoting action compared with Ser-Leu-Ile-Gly-Arg-Leu-NH2 and Ile-Gly-Arg-Leu-NH2 ([1]; peptide 5 μmol/kg i.v. after amastatin 2.5 μmol/kg i.v., measured at 1, 2, 4 and 6 minutes (FIG. 5)): maintained over a longer period of time; lacrimal secretion promoting action compared with Ser-Leu-Ile-Gly-Arg-Leu-NH2 and Ile-Gly-Arg-Leu-NH2 [1, 4]: almost the same as those of Ser-Leu-Ile-Gly-Arg-Leu-NH2 and Ile-Gly-Arg-Leu-NH2
D-Arg-D-Leu-NH2 [(D)Arg-(D)Leu-NH2] | did not entirely influence on lacrimal secretion | 
D-Arg-L-Leu-NH2 [(D) Arg-(L)Leu-NH2] | did not entirely influence on lacrimal secretion | 
Ile-Gly-Arg-Leu-NH2 (IGRL-NH2) [Ile-Gly-Arg-Leu-NH7] |  | lacrimal secretion promoting action (previously demonstrated) [2]: previously demonstrated to have the lacrimal secretion promoting action
L-Arg-D-Leu-NH2 [(L)Arg-(D)Leu-NH2] | did not entirely influence on lacrimal secretion | 
L-Arg-L-Leu-NH2 [(L)Arg-(L)Leu-NH2] | promote lacrimal secretion | lacrimal secretion promoting action compared with Ser-Leu-Ile-Gly-Arg-Leu-NH2 and Ile-Gly-Arg-Leu-NH2 [1, 4]: lower than those of Ser-Leu-Ile-Gly-Arg-Leu-NH2 and Ile-Gly-Arg-Leu-NH2
Ser-Leu-Ile-Gly-Arg-Leu-NH2 (SLIGRL-NH2) |  | activation of PAR-2 [3]: activates PAR-2; lacrimal secretion promoting action (previously demonstrated) [2]: previously demonstrated to have the lacrimal secretion promoting action
cyclo-L-Arg-L-Leu-NH2 [cyclo-Arg-Leu] | did not entirely influence on lacrimal secretion | 
